Experimental data: patent US20200031866A1, “PEPTIDE INHIBITORS OF SODIUM CHANNELS” (SPYRYX BIOSCIENCES, INC., priority 2016, published 2020)
Entries after “also recorded” stand apart in the source; their conditions may differ. Square brackets hold non-standard residues; d marks the D form. Ends that are not written are not given here. Peptide text beside a SMILES is read from it. Nle = CCCC[C@H](N)C(=O)O

What was measured:
[1] = target: T1, ENaC (Homo sapiens, UniProt P37088+P51168+P51170); assay: Airway surface liquid (ASL) height in human bronchial epithelial cultures by XZ-confocal microscopy; assay type: cell-based; conditions: FIGS. 3A, 3B; for potency compared to S18 (dose response): 4
T1 construct: Peptides were added mucosally to HBECs at 30 μM and ASL height measured 3 h later by XZ-confocal microscopy; endogenous in cells; host or cells: primary human bronchial epithelial cultures (HBECs) at air-liquid interface
T1 sequence (P37088 1-669): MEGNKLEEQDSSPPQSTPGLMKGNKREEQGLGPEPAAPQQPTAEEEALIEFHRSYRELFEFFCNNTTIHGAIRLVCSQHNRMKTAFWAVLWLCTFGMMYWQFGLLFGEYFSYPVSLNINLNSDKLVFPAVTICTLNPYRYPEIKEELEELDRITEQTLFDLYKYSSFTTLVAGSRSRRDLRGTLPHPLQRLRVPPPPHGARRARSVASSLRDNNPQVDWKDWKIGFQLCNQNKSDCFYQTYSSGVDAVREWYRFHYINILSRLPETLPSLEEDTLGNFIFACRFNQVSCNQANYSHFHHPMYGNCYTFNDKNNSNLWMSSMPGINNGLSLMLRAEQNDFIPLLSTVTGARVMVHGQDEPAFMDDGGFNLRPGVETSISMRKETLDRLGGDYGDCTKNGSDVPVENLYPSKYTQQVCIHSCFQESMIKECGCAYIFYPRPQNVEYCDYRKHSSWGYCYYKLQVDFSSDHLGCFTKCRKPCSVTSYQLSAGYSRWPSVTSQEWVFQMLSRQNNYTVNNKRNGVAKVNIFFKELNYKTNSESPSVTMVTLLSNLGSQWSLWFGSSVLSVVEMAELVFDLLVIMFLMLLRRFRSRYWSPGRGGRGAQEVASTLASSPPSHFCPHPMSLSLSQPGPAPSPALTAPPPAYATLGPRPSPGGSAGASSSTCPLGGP
T1 sequence (P51168 1-640): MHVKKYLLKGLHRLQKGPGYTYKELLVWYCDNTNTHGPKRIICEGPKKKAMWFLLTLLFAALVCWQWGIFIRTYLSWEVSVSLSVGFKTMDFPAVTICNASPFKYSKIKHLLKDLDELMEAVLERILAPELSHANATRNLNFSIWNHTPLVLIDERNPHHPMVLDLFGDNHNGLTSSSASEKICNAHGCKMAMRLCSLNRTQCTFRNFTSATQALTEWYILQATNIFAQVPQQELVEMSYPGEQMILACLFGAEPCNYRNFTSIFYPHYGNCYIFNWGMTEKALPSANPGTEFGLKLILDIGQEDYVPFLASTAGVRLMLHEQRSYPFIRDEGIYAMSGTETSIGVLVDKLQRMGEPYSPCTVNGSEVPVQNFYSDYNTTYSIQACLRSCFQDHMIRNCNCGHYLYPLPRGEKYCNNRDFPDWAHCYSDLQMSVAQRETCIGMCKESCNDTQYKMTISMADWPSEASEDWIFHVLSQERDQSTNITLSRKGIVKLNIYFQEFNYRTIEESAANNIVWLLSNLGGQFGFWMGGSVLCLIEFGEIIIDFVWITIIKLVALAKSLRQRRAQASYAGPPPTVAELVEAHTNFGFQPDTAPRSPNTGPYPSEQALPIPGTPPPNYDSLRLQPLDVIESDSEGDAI
T1 sequence (P51170 1-649): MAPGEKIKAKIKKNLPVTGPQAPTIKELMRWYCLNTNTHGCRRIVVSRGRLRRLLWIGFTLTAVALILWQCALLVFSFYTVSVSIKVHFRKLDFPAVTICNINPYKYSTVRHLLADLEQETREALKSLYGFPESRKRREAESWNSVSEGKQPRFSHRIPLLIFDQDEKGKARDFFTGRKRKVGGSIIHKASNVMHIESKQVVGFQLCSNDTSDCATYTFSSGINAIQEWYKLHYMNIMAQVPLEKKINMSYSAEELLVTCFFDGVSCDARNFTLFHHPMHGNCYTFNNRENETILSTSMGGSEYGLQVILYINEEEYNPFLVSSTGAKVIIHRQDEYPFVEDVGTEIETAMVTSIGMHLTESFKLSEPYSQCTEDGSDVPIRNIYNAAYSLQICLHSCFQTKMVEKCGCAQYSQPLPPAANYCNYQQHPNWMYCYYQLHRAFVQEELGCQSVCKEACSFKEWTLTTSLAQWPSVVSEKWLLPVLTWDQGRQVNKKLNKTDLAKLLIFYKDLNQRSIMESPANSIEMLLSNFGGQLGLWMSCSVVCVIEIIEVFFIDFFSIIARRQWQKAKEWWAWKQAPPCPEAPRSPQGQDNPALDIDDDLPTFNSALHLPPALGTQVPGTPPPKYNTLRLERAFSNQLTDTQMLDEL

[2] = target: T1, ENaC; assay: as above; assay type: cell-based; conditions: peptides added mucosally to HBECs at 30 μM, ASL height measured 3 h later; FIGS. 2A-2B
Excerpt: Cells were harvested by enzymatic digestion from human bronchial tissue as previously described under a protocol approved by the UNC School of Medicine IRB (Tarran et al., J. Gen. Physiol. 127:591 (2006)). Human excess donor lungs and excised recipient lungs were obtained at the time of lung transplantation from portions of main stem or […] bronchi and cells were harvested by enzymatic digestion. All preparations were maintained at an air-liquid interface in a modified bronchial epithelial medium and used 2-5 weeks after seeding on 12 mm T-Clear inserts (Corning Costar) coated with human placental type VI collagen (Sigma). Phosphate buffered saline (PBS) was used for washing human bronchial epithelial culture mucosal surfaces.
To label airway surface liquid, Ringer containing rhodamine-dextran (2 mg/ml; Invitrogen) was added to human bronchial epithelial culture mucosal surfaces. […] 10 points per culture were scanned and an average airway surface liquid height determined. […]
To confirm our alanine-scan data, we made a peptide of subsequence A (LPVPLDQT (SEQ ID NO:113); FIG. 1). […] Peptides were added mucosally to HBECs at 30 μM and ASL height measured 3 h later by XZ-confocal microscopy. […]

[3] = target: T2, alpha-ENaC (Homo sapiens, UniProt P37088+P51168+P51170); assay: Internalization of alpha-ENaC in HEK293T cells, GFP-tagged alpha-ENaC co-expressed with beta and gamma ENaC; assay type: cell-based; conditions: beta-ENaC co-expressed, FIGS. 5A-5U
T2 construct: expressed in transfected cells; host or cells: HEK293T
T2 sequence (P37088 1-669): T1 sequence (P37088 1-669)
T2 sequence (P51168 1-640): T1 sequence (P51168 1-640)
T2 sequence (P51170 1-649): T1 sequence (P51170 1-649)
Excerpt: HEK293T cells were transfected with gfp-αENaC where gfp was fused at the N-terminus of ENaC and unlabeled βENaC and γENaC using lipofectamine in 384 well plates as per the manufacturer's instructions and as published previously (see, e.g., Hobbs et al. Am J Physiol Lung Cell Mol Physiol. 2013 December; 305(12):L990-L1001. doi: 10.1152/ajplung.00103.2013. Epub 2013 October; Garland et al. Proc Natl Acad Sci USA. 2013 Oct. 1; 110(40):15973-8. doi: 10.1073/pnas.1311999110. Epub 2013 Sep. 16.; Tan et al. J Physiol. 2014 Dec. 1; 592(Pt 23):5251-68). Twenty-four hours later, peptide or vehicle control were added at t=0 and fluorescence was read using a Tecan M1000 plate reader 3 h later. Fluorescence was read at 488 nm (excitation)/510 nm (emission).

[4] = tested on: proteases; assay type: in vitro ADME
[5] = tested on: βENaC-Tg mice; assay type: in vivo; conditions: βENaC-Tg C57BL:C3H mice, fourteen-day treatment; FIGS. 7C, 7D, 7F
Excerpt: Like CF patients, βENaC-Tg mice are disease free at birth, but soon develop obstructive lung disease (Zhou, Z., et al. Am J Respir Crit Care Med 178, 1245-1256 (2008)). C57BL:FVB and C57BL:C3H mixed strains have 90% and 50% mortality, respectively, and the reproducibility of the disease on these backgrounds is sufficiently high that reliable data are produced with n of about 8-10 animals/group. Furthermore, the βENaC-Tg mouse responds to therapeutic interventions in a fashion similar to CF/COPD in humans, and the development of lung disease can be prevented following inhibition of lung disease at birth (Livraghi, A., et al. J Immunol 182, 4357-4367 (2009)). S18-derived peptides or vehicle were dosed one to three times a day by intranasal instillation (1 μl/g body weight) for 14 days in parallel cohorts of mice. Mice were weighed daily and, if a diuretic effect was found, the volume excreted was replaced by sub-cutaneous injections of sterile saline. At the end of the treatment, mice were sacrificed for phenotypic analysis.

Row | Compound | potency compared to S18 (dose response) [1] | efficacy compared to S18 (dose response) [1] | also measured
1 | CCCC[C@H](NC(=O)[C@@H]1CCCN1C(=O)[C@H](CC(C)C)NC(=O)[C@@H](C)NC(=O)[C@@H](C)N)C(=O)N1CCC[C@H]1C(=O)N[C@@H](CC(C)C)C(=O)N[C@@H](CC(=O)O)C(=O)N[C@@H](CCC(N)=O)C(=O)N[C@H](C(=O)N[C@H](C)C(=O)N[C@H](C)C(N)=O)[C@@H](C)O [SEQ ID NO:5, aaLPNlePLDQTaa] (H-[dA][dA]LP[Nle]PLDQT[dA][dA]-NH2; N-terminus assumed) | log-fold increase in potency; also recorded: significant increase in potency; also recorded: increased potency | – | –
2 | DQTLPLNVNP (not fully specified) [SEQ ID NO:114, NH3-…-NH2, overlapping control peptide of S18] | – | – | activity on ASL height / inhibition of ENaC compared with S18 [2]: inactive
3 | N=C(N)NC(=O)c1nc(Cl)c(N)nc1N [amiloride] | – | – | reduction of alpha-ENaC / functional receptor on the cell surface [3]: does not reduce the amount of functional receptor on the surface of cells
4 | H-LPVPLDQT-NH2 [SEQ ID NO:113, LPVPLDQT] | – | – | susceptibility to proteolytic degradation [4]: more susceptible to proteolytic degradation; activity on ASL height / inhibition of ENaC compared with S18 [2]: retained similar activity to S18; also recorded: required for inhibition of ENaC and preservation of ASL height
5 | aaLPVPNleDQTaa [SEQ ID NO:6] | – | diminished | –
6 | SEQ ID NO:127: NH3-LPIPLDQT-NH2 (H-LPIPLDQT-NH2) | – | – | percent survival [5]: increased percent survival
7 | aaLPVPLDQTLPLNVNPaa ([dA][dA]LPVPLDQTLPLNVNP[dA][dA]-NH2; N-terminus assumed; SMILES CC(C)C[C@H](NC(=O)[C@@H]1CCCN1C(=O)[C@H](CC(C)C)NC(=O)[C@@H](NC(=O)[C@H](CCC(N)=O)NC(=O)[C@H](CC(=O)O)NC(=O)[C@H](CC(C)C)NC(=O)[C@@H]1CCCN1C(=O)[C@@H](NC(=O)[C@@H]1CCCN1C(=O)[C@H](CC(C)C)NC(=O)[C@@H](C)NC(=O)[C@@H](C)N)C(C)C)[C@@H](C)O)C(=O)N[C@@H](CC(N)=O)C(=O)N[C@H](C(=O)N[C@@H](CC(N)=O)C(=O)N1CCC[C@H]1C(=O)N[C@H](C)C(=O)N[C@H](C)C(N)=O)C(C)C) [SEQ ID NO:2, a = D-alanine] | equal | equal | –
8 | aaLPVPLDQTaa ([dA][dA]LPVPLDQT[dA][dA]-NH2; N-terminus assumed; SMILES CC(C)C[C@H](NC(=O)[C@@H]1CCCN1C(=O)[C@@H](NC(=O)[C@@H]1CCCN1C(=O)[C@H](CC(C)C)NC(=O)[C@@H](C)NC(=O)[C@@H](C)N)C(C)C)C(=O)N[C@@H](CC(=O)O)C(=O)N[C@@H](CCC(N)=O)C(=O)N[C@H](C(=O)N[C@H](C)C(=O)N[C@H](C)C(N)=O)[C@@H](C)O) [SEQ ID NO:3, a = D-alanine] | identical dose responses; also recorded: equal | identical dose responses; also recorded: equal | –
9 | aaLPVPLDQSaa ([dA][dA]LPVPLDQS[dA][dA]-NH2; N-terminus assumed; SMILES CC(C)C[C@H](NC(=O)[C@@H]1CCCN1C(=O)[C@@H](NC(=O)[C@@H]1CCCN1C(=O)[C@H](CC(C)C)NC(=O)[C@@H](C)NC(=O)[C@@H](C)N)C(C)C)C(=O)N[C@@H](CC(=O)O)C(=O)N[C@@H](CCC(N)=O)C(=O)N[C@@H](CO)C(=O)N[C@H](C)C(=O)N[C@H](C)C(N)=O) [SEQ ID NO:9] | diminished | – | –
